Source: ChEMBL document CHEMBL4052749, “Selective inhibitors of human mPGES-1 from structure-based computational screening” (Bioorg Med Chem Lett, 2017)

Tests used:
[1] = molecular target: T1, Prostaglandin E synthase (Homo sapiens) (UniProt O14684); assay: Inhibition of human mPGES-1 expressed in 293-F cells using PGH2 as substrate preincubated for 15 mins followed by substrate addition measured after 30 secs at 10 uM by enzyme immunoassay
T1 sequence (whole entry): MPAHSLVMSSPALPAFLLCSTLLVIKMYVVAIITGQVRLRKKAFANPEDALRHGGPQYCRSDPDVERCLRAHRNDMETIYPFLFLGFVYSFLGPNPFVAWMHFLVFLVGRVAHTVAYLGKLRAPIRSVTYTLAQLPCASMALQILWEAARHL

Prostaglandin E synthase = molecular target: T2, Prostaglandin E synthase (Homo sapiens, UniProt O14684); assay: Inhibition of human mPGES-1 expressed in 293-F cells using PGH2 as substrate preincubated for 15 mins followed by substrate addition measured after 30 secs enzyme immunoassay; type: cell-based
T2 sequence (O14684 whole entry): T1 sequence (whole entry)

[2] = test system: COX1/COX2 (ovine COX1, human COX2; the isoform is not stated for the values); assay: Inhibition of ovine COX1/human COX2 assessed as reduction in PGH2 production by measuring PGF2alpha at 100 uM using PG-acetylcholinesterase as tracer by colorimetry; conditions: ovine COX1/human COX2 enzymes
[3] = Inhibition of ovine COX1/human COX2 assessed as reduction in PGH2 production by measuring PGF2alpha using PG-acetylcholinesterase as tracer by colorimetry

Compound | inhibition [1] | also measured
CCOC(=O)CC(=O)c1cn(CCCOC(=O)CCCCCCCCC(=O)OCCCn2cc(C(=O)CC(=O)OCC)c(=O)[nH]c2=O)c(=O)[nH]c1=O | 48% | –
O=c1oc2ccccc2n1P(=O)(N1CCOCC1)N1CCOCC1 | 29% | –
O=[N+]([O-])c1ccc(N/N=C(\C=C\c2ccc3c(c2)OCO3)c2cnc(Nc3ccc(Cl)c(Cl)c3)s2)c([N+](=O)[O-])c1 | 98% | IC50 (Prostaglandin E synthase): 0.284 µM; inhibition at 100 µM [2]: 8%
CC(C)(C)OC(=O)N[C@H](Cc1ccc(OCc2ccccc2)cc1)C(=O)N[C@H](CCCCNC(=O)OCc1ccccc1)C(=O)ON1C(=O)CCC1=O | 32% | –
O=C(Nc1ccc(Cl)cc1)Nc1nnc(-c2cccc(-c3nnc(NC(=O)Nc4ccc(Cl)cc4)o3)c2)o1 | 59% | –
Cc1cc(NS(=O)(=O)c2ccc(/N=N/c3cc(/N=N/c4ccc(S(=O)(=O)Nc5cc(C)nc(C)n5)cc4)c4c(NC(=O)C(Cl)Cl)cccc4c3OC(=O)C(Cl)Cl)cc2)nc(C)n1 | 46% | –
S=C(Nc1ccccc1)N1CCC(CCCC2CCN(C(=S)Nc3ccccc3)CC2)CC1 | 53% | –
CCCCCCCCCCCCc1ccc(NC2=C(Cl)C(=O)C(Nc3ccc(CCCCCCCCCCCC)cc3)=C(Cl)C2=O)cc1 | 49% | –
Cc1ccccc1NC(=O)/C(Cc1nc2ccc(C(=O)c3ccccc3)cc2nc1O)=N\NC(=O)c1ccncc1 | 94% | IC50 (Prostaglandin E synthase): 0.664 µM; inhibition at 100 µM [2]: 0%
C[n+]1ccc(Nc2ccc(NC(=O)c3ccc(Nc4cc[n+](C)c5ccc(N)cc45)cc3N)cc2)cc1 | 30% | –
O=C(N/N=C\c1ccccc1/C=N\NC(=O)Nc1ccc(/N=N/c2ccccc2)cc1)Nc1ccc(/N=N/c2ccccc2)cc1 | 71% | –
O=[N+]([O-])c1ccc(CSc2ncc(Br)c(SCc3ccc([N+](=O)[O-])cc3)n2)cc1 | 26% | –
CC(=O)N[C@H]1[C@@H](OCc2ccccc2)O[C@H](CO)[C@H](O)[C@@H]1C[C@H](C)C(=O)N[C@@H](C)C(=O)N[C@H](CCC(=O)OCCNc1c2ccccc2nc2cccc([N+](=O)[O-])c12)C(N)=O | 37% | –
O=C(Nc1cccc2c(OC(=O)C(Cl)Cl)c(/C=C/c3ccc(S(=O)(=O)Nc4nccs4)cc3)cc(/N=N/c3ccc(S(=O)(=O)Nc4nccs4)cc3)c12)C(Cl)Cl | 10% | –
C[C@@H]1c2c(cc(OC(=O)c3cccc(S(=O)(=O)F)c3)nc2OC(=O)c2cccc(S(=O)(=O)F)c2)C(=O)N1Cc1ccccc1 | 15% | –
COc1ccc(N(Nc2ccc(Br)cc2)c2ccccc2N(Nc2ccc(Br)cc2)c2ccccc2OC)cc1 | 100% | IC50 (Prostaglandin E synthase): 0.889 µM; inhibition at 100 µM [2]: 37%; IC50 [3]: > 100 µM
O=C(OCCN(CCOC(=O)c1ccccc1)C(=O)N(CCOC(=O)c1ccccc1)CCOC(=O)c1ccccc1)c1ccccc1 | 46% | –
CC[n+]1ccc(Nc2ccc(NC(=O)c3ccc(Nc4cc[n+](CC)c5ccc([N+](=O)[O-])cc45)cc3)cc2)cc1 | 70% | –
Cc1ccc(NC(=S)N2CCC(CCCC3CCN(C(=S)Nc4ccc(C)cc4C)CC3)CC2)c(C)c1 | 49% | –
O=P1(N(CCCl)CCCl)N(Cc2ccc(Cl)c(Cl)c2)CCCN1Cc1ccc(Cl)c(Cl)c1 | 65% | –

Compound | inhibition [1] | also measured
CCOc1ccc(NC(=S)N2CCC(CCCC3CCN(C(=S)Nc4ccc(OCC)cc4)CC3)CC2)cc1 | 59% | –
O=C(C(=O)c1ccc(/N=C/c2ccc(N(CCCl)CCCl)cc2)cc1)c1ccc(/N=C/c2ccc(N(CCCl)CCCl)cc2)cc1 | 28% | –
N#C[C@@H](c1ccccc1)N(CCCCCCN(C(=O)c1ccccc1)[C@@H](C#N)c1ccccc1)C(=O)c1ccccc1 | 40 to 44% | –
N#Cc1cccc(C2C(=O)c3c(c(-c4ccccc4)c(-c4ccc(Sc5ccc(-c6c(-c7ccccc7)c7c(c(-c8ccccc8)c6-c6ccccc6)C(=O)N(c6cccc(C#N)c6)C7=O)cc5)cc4)c(-c4ccccc4)c3-c3ccccc3)C2=O)c1 (centres undefined) | 100% | IC50 (Prostaglandin E synthase): 0.439 µM; inhibition at 100 µM [2]: 9%
COc1ccc2nc3cc(Cl)ccc3c(SCC(=O)Nc3ccccc3-c3ccccc3NC(=O)CSc3c4ccc(Cl)cc4nc4ccc(OC)cc34)c2c1 | 57% | –
Cc1ccc(NC(=O)c2cc(S(=O)(=O)Nc3n[nH]c(=O)[nH]3)c(SSc3cc(Cl)c(C(=O)Nc4ccc(C)cc4)cc3S(=O)(=O)Nc3n[nH]c(=O)[nH]3)cc2Cl)cc1 | 47% | –
COc1ccc(C(=O)COC(=O)[C@H](C[Se][Se]C[C@H](NC(=O)c2ccc(Br)cc2F)C(=O)OCC(=O)c2ccc(OC)cc2)NC(=O)c2ccc(Br)cc2F)cc1 | 65% | –
Cn1c2ccccc2c(=S)c2cc(NC(=O)CCCCC(=O)Nc3ccc4c(c3)c(=S)c3ccccc3n4C)ccc21 | 25% | –
O=C(C[C@H](c1ccc2c(c1)OCO2)N1CCN([C@H](CC(=O)c2ccc(Br)cc2)c2ccc3c(c2)OCO3)CC1)c1ccc(Br)cc1 | 50% | –
CCCCCCCCCCCC(=O)Nc1ccc(SSc2ccc(NC(=O)CCCCCCCCCCC)cc2)cc1 | 70% | –
CN(Cc1ccc(Cl)cc1)C(=O)NCCCCCCNC(=O)N(C)Cc1ccc(Cl)cc1 | 64% | –
Cc1noc(NS(=O)(=O)c2ccc(/N=N/c3cc(/N=N/c4ccc(S(=O)(=O)Nc5onc(C)c5C)cc4)c4c(NC(=O)C(Cl)Cl)cccc4c3OC(=O)C(Cl)Cl)cc2)c1C | 43% | –
CCCCOc1ccc(NC(=S)Nc2ccc(N(C)C)cc2)cc1 [THIAMBUTOSINE] | 99% | IC50 (Prostaglandin E synthase): 0.37 µM; inhibition at 100 µM [2]: 1%
CC1=NN(C(=O)CC(=O)Nc2ccccc2C)C(=O)[C@@H]1/C=N/c1ccc(S(=O)(=O)c2ccc(/N=N/[C@@H]3C(=O)N(C(=O)CC(=O)Nc4ccccc4C)N=C3C)cc2)cc1 | 36% | –
CC(C)C(=O)OCC(C)(C)[C@H](OC(=O)COc1ccc(Cl)cc1Cl)C(C)C | 69% | –
CC(C)(C)c1cc(OCc2nnc3sc(-c4ccc(Cl)cc4)nn23)c(Cl)cc1OCc1nnc2sc(-c3ccc(Cl)cc3)nn12 | 75% | IC50 (Prostaglandin E synthase): 0.917 µM; inhibition at 100 µM [2]: 15%
CC/C(=C(/CC)c1ccc(Oc2nc(N3CC3)nc(N3CC3)n2)cc1)c1ccc(Oc2nc(N3CC3)nc(N3CC3)n2)cc1 | 46% | –
CC(=O)O[C@H]1CC[C@]2(C)C3C[C@@]4(C)C(CCC4[C@@H](C)CCCC(C)C)C[C@]3(C#N)n3c(=O)n(-c4ccccc4)c(=O)n3[C@]2(C#N)C1 (some centres undefined) | 99% | IC50 (Prostaglandin E synthase): 0.276 µM; inhibition at 100 µM [2]: 14%
O=C(Nc1ccccc1)c1cc(S(=O)(=O)Nc2n[nH]c(=O)[nH]2)c(SSc2cc(Cl)c(C(=O)Nc3ccccc3)cc2S(=O)(=O)Nc2n[nH]c(=O)[nH]2)cc1Cl | 59% | –
